Experimental data from patent publication US6759396B1, “Compositions based on a synergistic mixture of at least one VDR ligand and a retinoid” (Centre International de Recherches Dermatalogiques Galderma …, priority 1995, dated 2004).

Columns and labels:
[1] = test system: RARγ receptors relative to RARα receptors; assay: dissociation constants for RAR receptors (standard tests from cited references); format: binding, human; details: selectivity for RARγ relative to RARα
Description: The dissociation constants are determined by means of tests which are standard to those skilled in the art. These tests are described in particular in the following references: (1) “Selective Synthetic Ligands for Nuclear Retinoic Acid Receptor Subtypes” in RETINOIDS, Progress in Research and Clinical Applications, Chapter 19 (pp 261-267), Marcel Dekker Inc., published by Maria A. Livrea and Lester Packer; (2) “Synthetic Retinoids: Receptor Selectivity and Biological Activity” in Pharmacol. Skin, Basle, Karger, 1993, Volume 5, pp. 117-127; (3) “Selective Synthetic Ligands for Human Nuclear Retinoic Acid Receptors” in Skin Pharmacology, 1992, Vol. 5, pp. 57-65; (4) “Identification of Synthetic Retinoids with Selectivity for Human Nuclear Retinoic Acid Receptor-γ” in Biochemical and Biophysical Research Communications, Vol. 186, No. 2, July 1992, pp. 977-983; (5) “Selective High Affinity RAR-α or RAR-β Retinoic Acid Receptor Ligands” in Mol. Pharmacol., Vol. 40, pp. 556-562.
In an advantageous manner, the retinoids which are selective for the RARγ receptors relative to the RARα receptors have an RARα/RARγ dissociation constant ratio greater than or equal to 8.

keratinocytes = assay: keratinocyte proliferation, XTT assay (Cell proliferation kit II); format: cell-based
Description: The keratinocytes were obtained from a specimen of skin obtained from plastic surgery. They are used at the second passage. The cells are cultured at 37° C. in a humid atmosphere in the presence of 5% CO2 according to the method of Rheinwald and Green in the presence of 3T3 fibroblasts treated with mitomycin in MEM medium containing 10% (v/v) foetal calf serum (FCS), 0.4 μg/ml of hydrocortisone, 10 ng/ml of EGF (epidermal growth factor) and 10^−9 M chloleratoxin. The 3T3 cells are inoculated 24 h before the keratinocytes at a rate of 15,000 cells per cm^2. Next, the keratinocytes are inoculated at a rate of 4000 cells per cm^2. […] After culturing for 4 days, the cells are harvested in order to determine the proliferation. The cell proliferation is determined using a kit with the reference name “Cell proliferation kit II” (XTT assay) used according to the indications of the manufacturer (Boehringer, ref. 1465 05). It is expressed in absorbance units at 495 nm. The lower the value of the absorbance measured, the more the keratinocyte proliferation has been inhibited.

SMILES | RARα/RARγ dissociation constant ratio [1] | synergism of inhibition on keratinocyte proliferation (keratinocytes; in combination with 1,25-dihydroxyvitamin D3, identical conditions) | inhibition on keratinocyte proliferation (keratinocytes; in combination with 1,25-dihydroxyvitamin D3, 4 days culture, FIGS. 1 and 2)
COc1ccc(-c2ccc3cc(C(=O)O)ccc3c2)cc1C12CC3CC(CC(C3)C1)C2 [6-[3-(1-adamantyl)-4-methoxyphenyl]-2-naphthoic acid] | 84.4 | – | –
CC1=C(/C=C/C(C)=C/C=C/C(C)=C/C(=O)O)C(C)(C)CCC1 [all-trans retinoic acid, reference compound] | – | No synergism | –
CC1(C)CCC(C)(C)c2cc(C(O)C#Cc3ccc(C(=O)O)c(O)c3)ccc21 (centres unmarked) [2-hydroxy-4-[3-hydroxy-3-(5,6,7,8-tetrahydro-5,5,8,8-tetramethyl-2-naphthyl)-1-propynyl]benzoic acid] | 36.6 | – | –
O=C(O)c1ccc2cc(-c3ccc(O)c(C45CC6CC(CC(C6)C4)C5)c3)ccc2c1 [compound 1, 6-[3-(1-adamantyl)-4-hydroxyphenyl]-2-naphthoic acid] | 8.5 | – | very good inhibition
